# Laboratory results from US20070167526A1, “Topical mecamylamine formulations for ocular administration and uses thereof” (priority 2005, published 2007).
# Assay: in vivo
# Settings: rabbit
# Procedure: As used herein, the term “topically administered to a rabbit eye,” and cognates thereof, refers to the administration of a particular mecamylamine formulation, including formulations of pharmaceutically acceptable salts of mecamylamine, by applying 100 μL of the mecamylamine formulation to the cornea of each eye (2 drops of 50 μL each), wherein at the time of application the bottom eyelid is separated from the surface of the eye to make a pocket to ensure the entire dose is retained in contact with the eye. When the concentration of mecamylamine in plasma and in the retinal/choroidal tissue is to be measured in connection with the calculation of the ratio of the mecamylamine concentration in the retina/choroid versus the concentration of mecamylamine in plasma, the concentration of each is determined 1 hour after application of the formulation. The amount of mecamylamine present in plasma and the retina/choroid is determined by LC/MS/MS using internal standards of dextromethorphan and diphenhydramine and a standard of known concentration of mecamylamine. An exemplary method of administration of the topical formulation of mecamylamine is provided in Example 5. An exemplary LC/MS/MS method for determining the ratios described herein is given in detail in Example 6. When the mean maximum concentration of mecamylamine in plasma is to be determined, the concentration is again determined as described above and in Example 6. The term “mean maximum concentration of mecamylamine,” and its cognates, as used herein refers to the mean maximum concentration of mecamylamine measured in plasma when monitored over a 6 hour time period after administration of the formulation. When the mean total concentration of mecamylamine in plasma is to be determined, the concentration is again determined as described above and in Example 6. The term “total concentration of mecamylamine in plasma measured as the area under the curve,” (AUC) and cognates thereof, refers to summation of the areas under plot of the drug plasma versus time using a simple trapezoidal method with drug plasma time points taken to include 1, 3 and 6 hours after topical administration. Determination of AUC for corneal tissue, retinal/choroid tissue and aqueous humor is determined similarly. When the concentration of mecamylamine in plasma and in the corneal tissue is to be measured in connection with the calculation of the ratio of the mecamylamine concentration in the cornea (or aqueous humor) versus the concentration of mecamylamine in plasma, the concentration of each is determined 1 hour after application of 50 μl of the formulation. The amount of mecamylamine present in plasma and the cornea (or aqueous humor) is determined by LC/MS/MS using internal standards of dextromethorphan and diphenhydramine and a standard of known concentration of mecamylamine. An exemplary method of administration of the topical formulation of mecamylamine is provided in Example 5. An exemplary LC/MS/MS method for determining the ratios described herein is given in detail in Example 6.
# A single dose of a polymer-free solution, gellan gum formulation and hypromellose formulation containing 3% mecamylamine hydrochloride, was instilled in the eyes of rabbits (Dutch-belted male rabbits (Convance, Denver, Pa.) minimum age 2 months and with weights of 1.6 to 1.8 kg). Two animals were euthanized 30 minutes, 1 hour or 3 hours after dosing.
# Sample of blood and ocular tissue (obtained as described in previous examples) were analyzed for mecamylamine concentration using an LC MS/MS method up to 3 hours after dosing.
# The area-under-the-curve (AUC) was calculated using a trapezoidal rule on a population pharmacokinetic basis (see Table 9).
compound,measurement,setting,value
"CNC1(C)C2CCC(C2)C1(C)C (stereo not shown) [mecamylamine, N-2,3,3-tetramethylbicyclo(2.2.1)heptan-2-amine]",Kp at 1 h,"male, Dutch-belted, in vivo",≥ 1000
same,ratio of the concentration of mecamylamine in the aqueous humor versus plasma,"male, Dutch-belted, in vivo, 1 h",at least 50:1
same,AUC,"male, Dutch-belted, in vivo, topical or ocular",< 85 ng·h/mL
same,safety issues during the study,single ocular dose,No safety issues arose
